Assay results taken from patent US20250186634A1, “METHODS OF TREATING SMALL CELL LUNG CANCER” (Evergreen Discovery, LLC., priority 2023, published 2025).

Columns and labels:
CCK2R [1] = molecular target: T1, CCK2R (Rattus norvegicus, UniProt P30553); experiment: Small molecule blocking of PP-F11-FITC fluorescent signal in AR42J cells; assay type: cell-based; settings: 100 nM PP-F11-FITC, antagonist at 50× the concentration of PP-F11-FITC, FIG. 1A
T1 construct: rat pancreatic AR42J cells, which are known to express CCK2R; endogenous in cells; host or cells: AR42J rat pancreatic cancer cell line
T1 sequence (P30553 1-452): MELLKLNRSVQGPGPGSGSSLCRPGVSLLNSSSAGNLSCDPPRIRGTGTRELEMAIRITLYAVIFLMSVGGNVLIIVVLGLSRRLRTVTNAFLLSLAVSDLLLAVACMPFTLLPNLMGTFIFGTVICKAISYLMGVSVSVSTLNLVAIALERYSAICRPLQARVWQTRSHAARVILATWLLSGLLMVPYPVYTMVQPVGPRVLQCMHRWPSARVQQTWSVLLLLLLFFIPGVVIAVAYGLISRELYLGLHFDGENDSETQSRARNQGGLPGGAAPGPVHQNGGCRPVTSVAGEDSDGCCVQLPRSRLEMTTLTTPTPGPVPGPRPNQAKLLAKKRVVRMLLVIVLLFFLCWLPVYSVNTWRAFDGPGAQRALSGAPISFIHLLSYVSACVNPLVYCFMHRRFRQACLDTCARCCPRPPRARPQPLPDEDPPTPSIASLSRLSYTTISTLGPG
Procedure: Small molecule antagonism of PP-F11 in AR42J and Panc1 cell lines was evaluated by measuring the intensity of a fluorescent (“FL”) signal of FL tagged PP-F11 in the presence or absence of small molecule inhibitors.
Each blocking agent was added in a 50× excess dose concentration to saturate available receptors.
FIG. 1A depicts small molecule blocking experiments performed in rat pancreatic AR42J cells, which are known to express CCK2R. 100 nM of a fluorescently labeled version of PP-F11 (PP-F11-FITC) was added to cell culture in the absence of or the presence of various small molecule CCK2 receptor antagonists at 50× the concentration of fluorescently labeled PP-F11. To determine blocking of PP-F11, the fluorescent intensity of fluorescently labeled PP-F11 was measured in each experiment.

CCK2R [2] = molecular target: T1, CCK2R; experiment: Uptake of 177Lu-EVG321 by AR42J cells pre-treated with blocking agent (gamma counting); assay type: cell-based; settings: 2 mM blocking agent (100× excess dose), pre-treated 1 hour, 200 fmols 177Lu-EVG321 per well, two-tailed t-test, FIG. 3A-C
Procedure: AR42J rat pancreatic cell line were used as they express the CCK2 receptor. The AR42J rat pancreatic cancer cell line was cultured in F-12K medium from ATCC with a final concentration of FBS of 20% (v/v). Medium was changed every 2-3 days and a sub-cultivation ratio of 1:3 was used to split the cells. […] 1×10^6AR42J cells were seeded per well in a 6 well plate in 2 mL of media (DMEM: F12+10% Fetal Bovine Serum (FBS)). Cells were stored at 37° C. in an incubator starting at time 0 for 24-48 hours (depending on cell adherence). On the day of experiment, 1 hour before adding the blocking agent, the medium was changed and replaced with 2 mL of fresh media, and incubated at 37° C. degrees for 1 hour. Once the 1-hour incubation was complete, 4 μL of blocking agent was added to each well to provide a final concentration of 2 mM (i.e., 100 times more concentrated than the radioactive molecule). The plate was gently shaken and incubated at 37° C. for 1 hour. […] Samples were then analyzed using a Hidex Gamma counter to measure counts from each tube (gamma peaks of ^177Lu at 113 keV and 208 keV, 5 minutes per tube counting). […] Radioactive uptake was measured as a fraction of the added radiation at time 0 and used to calculate relative binding in counts per minute (CPM). […]

Structure (SMILES) | fluorescent signal of PP-F11-FITC compared to experiment A (PP-F11-FITC only); decrease indicates blocking of PP-F11 binding (CCK2R [1]) | specific uptake of 177Lu-EVG321 (relative uptake, CPM) versus cells without blocking agent (CCK2R [2])
CSCC[C@H](NC(=O)[C@H](Cc1c[nH]c2ccccc12)NC(=O)CNC(=O)[C@H](Cc1ccc(O)cc1)NC(=O)[C@H](C)NC(=O)[C@@H](CCC(=O)O)NC(=O)[C@@H](CCC(=O)O)NC(=O)[C@@H](CCC(=O)O)NC(=O)[C@@H](CCC(=O)O)NC(=O)[C@@H](CCC(=O)O)NC(=O)[C@H](N)CCC(=O)O)C(=O)N[C@@H](CC(=O)O)C(=O)N[C@@H](Cc1ccccc1)C(N)=O [PP-F11] | decrease in fluorescent signal | –
CCCN(CCC)C(=O)C(CCC(=O)O)NC(=O)c1ccccc1 (stereo not shown) [proglumide, 4-benzamido-5-(dipropylamino)-5-oxopentanoic acid] | – | did not show as drastic and statistically significant reduction of uptake
CNc1cccc(NC(=O)N[C@@H]2N=C(c3ccccn3)c3ccccc3N(CC(=O)C(C)(C)C)C2=O)c1 [sograzepide, (R)-1-(1-(3,3-dimethyl-2-oxobutyl)-2-oxo-5-(pyridin-2-yl)-2,3-dihydro-1H-benzo[e][1,4]diazepin-3-yl)-3-(3-(methylamino)phenyl) urea] | decrease in fluorescent signal | significant decrease in the specific uptake
